Assay results taken from patent publication EP0005422A2, “Derivatives of omega-dialkylalkanoic acids, processes for their preparation and their therapeutical use” (SANOFI S.A., priority 1978, dated 1979).
Converted amounts (≈) assume the structure as drawn. Like-named read-outs stand apart in the source and are kept apart here.

Legend:
[1] = test system: Crise à l'acide β-mercaptopropionique; experiment: β-mercaptopropionic acid seizure test (Crise à l'acide β-mercaptopropionique); type: in vivo, souris; details: for ED50: Mus musculus, po
Procedure: L'acide p-mercaptopropionique est un inhibiteur de la glutamate décarboxylase (G.A.D.), enzyme qui catalyse la transformation du glutamate en acide y-aminobutyrique (GABA). Son action se traduit donc par un abaissement du taux de GABA et la survenue de crises généralisées tonico-cloniques 3 à 4 minutes après son administration.
L'acide β-mercaptopropionique a été administré à des lots de 10 souris mâles, par voie intrapéritonéale, à la dose de 70 mg/kg, 30 minutes après l'administration orale d'une dose du composé à étudier. On note le pourcentage des animaux protégés contre la crise tonique 15 minutes après l'administration de l'acide β-mercaptopropionique.

[2] = Solubility and pH of aqueous solution; type: physicochemical; details: for solubility: water
[3] = test system: Anoxie par confinement; experiment: Anoxia by confinement (Anoxie par confinement); type: in vivo, souris; details: for % d'augmentation du temps de survie: male mice, 75 mg/kg intraperitoneal, versus controls
Procedure: Des lots de 15 souris mâles sont traités au moyen d'une dose de composé à étudier puis chaque animal est placé dans une enceinte hermétiquement close de 200 cm^3. L'animal est considéré comme mort au moment de l'arrêt respiratoire.
On détermine alors le % d'augmentation du temps de survie par rapport à des témoins.
On trouvera ci-dessous des résultats obtenus avec des composés de l'invention à la dose de 75 mg/kg par voie intrapéritonéale : [drawing 14]

[4] = test system: Crise pentétrazolique; experiment: Pentetrazol seizure test (Crise pentétrazolique); type: in vivo, souris; details: mice, 15 minutes after administration of pentetrazol; for ED50: Mus musculus, po, 0.25 h, read-out: DE50 (the source's name)
Procedure: Ce test, pratiqué sur souris par voie orale, est identique à celui décrit dans le brevet français N° 2.276.036.
Les DE50 obtenues 15 minutes après l'administration du pentécra- zol sont reprises ci-dessous comparativement aux résultats trouvés pour les sels de sodium correspondants : [drawing 12]

[5] = test system: souris; experiment: Acute toxicity (toxicité aiguë); type: in vivo; details: mice, 1000 mg/kg oral
Procedure: (§1) Des tests de toxicité aiguë pratiqués sur souris ont montré qu'à la dose de 1000 mg/kg, par voie orale, la mortalité provoquée par le n-propyl-3 hexanoate de magnésium et le n-propyl-3 hexanamide est respectivement de 40% et 0%.
(§2) A titre de comparaison, le n-propyl-3 hexanoate de sodium à la dose de 1000 mg/kg par voie orale provoque déjà 80% de mortalité.

[6] = test system: activité anticonvulsivante; experiment: Pharmacological studies of anticonvulsant activity (method not specified); type: in vivo; details: at identical doses, compared with di-n-propylacétate de sodium
[7] = Acute toxicity (toxicité aiguë); type: in vivo; details: mouse, in vivo, po, 1000 mg/kg, mice, 1000 mg/kg oral; read-out: mortalité
Procedure: as §1, §2

[8] = male mice, compound oral 30 minutes before β-mercaptopropionic acid 70 mg/kg i.p., protection against tonic seizure 15 minutes after
[9] = male mice, compound oral 30 minutes before β-mercaptopropionic acid 70 mg/kg i.p., protection against tonic seizure 15 minutes after, read-out: DE50 (the source's name)

Row | Structure (SMILES) | % d'augmentation du temps de survie [3] | ED50 [1, 9] | ED50 [4] | also measured
1 | CCCC(CCC)CCCC(=O)O [Y=OMg1/2, n=2, n-Propyl-5 octanoate de magnésium] | 56% | – | – | DE50 [1, 8]: 124 mg/kg; solubilité dans les solvants organiques ([2]; organic solvents): Bonne solubilité; solubility ([2]; read-out: Solubilité dans l'eau): 1 mg/mL (≈ 5.37 mM); DE50 ([4]; oral route, 15 min): 152 mg/kg
2 | CCCC(CCC)CCC(=O)O [Y=OCa1/2, n=1, n-propyl-4 heptanoate de calcium] | 27% | – | – | DE50 [1, 8]: 101 mg/kg; solubility ([2]; dissolves very slowly, read-out: se dissout dans l'eau): 1000 mg/mL
3 | CCCC(CCC)C(=O)O [di-n-propylacétate de sodium, reference compound] | – | – | – | ED50 ([1]; read-out: DE50): 175 mg/kg; augmentation du temps de survie ([3]; 200 mg/kg intraperitoneal, comparative test): 32%
4 | CCCC(CCC)CCCC(N)=O [Y=NH2, n=2, n-propyl-5 octanamide] | 64% | 129 mg/kg | 121 mg/kg | –
5 | CCCC(CCC)CCC(N)=O [Y=NH2, n=1, n-propyl-4 heptanamide] | 15% | – | 104 mg/kg | –
6 | CCCC(CCC)CCC(=O)O [Y=ONa, n=1, reference compound] | – | 124 mg/kg | 119 mg/kg | –
7 | CCCC(CCC)CC(=O)O [Y=OMg1/2, n=0, n-propyl-3 hexanoate de magnésium] | 36% | – | – | DE50 [1, 8]: 145 mg/kg; pH ([2]; 2% aqueous solution, slightly opalescent): 9,4; mortalité [5]: 40%
8 | CCCC(CCC)C(=O)O [sel de calcium] | – | – | – | potentialités anticonvulsivantes [6]: sensiblement équivalentes à celles du di-n-propylacétate de sodium et même légèrement inférieures
9 | CCCC(CCC)CC(=O)O [Y=ONa, n=0, n-propyl-3 hexanoate de sodium, reference compound] | – | 168 mg/kg | 95 mg/kg | mortalité [5]: 80%
10 | CCCC(CCC)CC(N)=O [Y=NH2, n=0, n-propyl-3 hexanamide] | – | 106 mg/kg | 65 mg/kg | mortality [7]: 0%
11 | CCCC(CCC)CCCC(=O)O [Y=ONa, n=2, reference compound] | – | – | 172 mg/kg | –
